Results from ChEMBL document CHEMBL1201862, “PubChem BioAssay data set” (2004).
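A five-concentration, 48-hour dose response in 96-well plates underlies each endpoint, interpolated linearly between surrounding concentrations. GI50: concentration for 50% inhibition of growth.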 The source made the active and inactive calls. Rule as the data show it: active = GI50 up to about 1.1 µM and inactive = higher.

Assays:
Assay in all cases: inhibition of tumour cell growth, NCI panel, 48 h
KM12 = tested on: KM12
A498 = tested on: A498
NCI-H23 = tested on: NCI-H23
SF-268 = tested on: SF-268
NCI-H460 = tested on: NCI-H460
HCT-116 = tested on: HCT-116
K562 = tested on: K562
NCI-H226 = tested on: NCI-H226
COLO 205 = tested on: COLO 205
SN12C = tested on: SN12C
M14 = tested on: M14
SW-620 = tested on: SW-620
UACC-62 = tested on: UACC-62
CCRF-CEM = tested on: CCRF-CEM
NCI/ADR-RES = tested on: NCI/ADR-RES
SK-MEL-28 = tested on: SK-MEL-28
786-0 = tested on: 786-0
BT-549 = tested on: BT-549
CAKI-1 = tested on: CAKI-1

Measured: GI50

CC(=O)CC(C)(C)NC(=O)[C@@]1(O)CC[C@H]2[C@@H]3CCC4=CC(=O)CC[C@@H]4[C@H]3CC[C@@]21C
inactive: KM12 > 100 µM | A498 > 100 µM | NCI-H23 > 100 µM | SF-268 > 100 µM | NCI-H460 > 100 µM | HCT-116 > 100 µM | K562 > 100 µM | NCI-H226 > 100 µM | COLO 205 > 100 µM | SN12C > 100 µM | M14 > 100 µM | SW-620 > 100 µM | UACC-62 > 100 µM | CCRF-CEM > 100 µM | NCI/ADR-RES > 100 µM | SK-MEL-28 > 100 µM | 786-0 > 100 µM | BT-549 > 100 µM

C=C(C)COc1cc(/N=C(/S)OC(C)C)ccc1Cl
inactive: KM12 20.2 µM | CAKI-1 15.3 µM | NCI-H23 16.1 µM | SF-268 19.5 µM | NCI-H460 15.4 µM | HCT-116 15.2 µM | K562 11.7 µM | NCI-H226 17.9 µM | COLO 205 16.3 µM | SN12C 16.1 µM | M14 17.2 µM | SW-620 13.7 µM | UACC-62 17.3 µM | CCRF-CEM 13.5 µM | NCI/ADR-RES 15.2 µM | SK-MEL-28 17.3 µM | 786-0 16.6 µM | BT-549 10.8 µM

Nc1nc(Cl)cc(NCC2CC(O)(CO)C2)n1 (stereo not given)
inactive: KM12 > 100 µM | CAKI-1 > 100 µM | A498 > 100 µM | NCI-H23 > 100 µM | SF-268 > 100 µM | NCI-H460 > 100 µM | HCT-116 > 100 µM | K562 > 100 µM | NCI-H226 > 100 µM | COLO 205 > 100 µM | SN12C > 100 µM | SW-620 > 100 µM | UACC-62 > 100 µM | CCRF-CEM > 100 µM | NCI/ADR-RES > 100 µM | SK-MEL-28 > 100 µM | 786-0 > 100 µM | BT-549 > 100 µM

Cc1nn(C(=O)c2ccc(Cl)cc2)c2c1C(c1ccc(Cl)cc1)SC(=N)N2 (stereo not given)
inactive: KM12 > 10 µM | CAKI-1 > 10 µM | NCI-H23 > 10 µM | SF-268 > 10 µM | NCI-H460 > 10 µM | HCT-116 > 10 µM | K562 > 10 µM | NCI-H226 > 10 µM | COLO 205 > 10 µM | SN12C > 10 µM | M14 > 10 µM | SW-620 > 10 µM | UACC-62 > 10 µM | CCRF-CEM > 10 µM | NCI/ADR-RES > 10 µM | SK-MEL-28 > 10 µM | 786-0 > 10 µM | BT-549 > 10 µM

Cc1ccc2c(=O)cc(Cc3cccs3)[nH]c2n1
inactive: KM12 > 100 µM | CAKI-1 > 100 µM | NCI-H23 > 100 µM | SF-268 > 100 µM | HCT-116 > 100 µM | K562 > 100 µM | NCI-H226 > 100 µM | COLO 205 > 100 µM | SN12C > 100 µM | M14 > 100 µM | SW-620 > 100 µM | UACC-62 > 100 µM | CCRF-CEM > 100 µM | NCI/ADR-RES > 100 µM | SK-MEL-28 > 100 µM | 786-0 > 100 µM | BT-549 > 100 µM

Cc1cc(C)nc(NS(=O)(=O)c2ccc(NC(=O)c3cccc4c(NNc5ccc(S(=O)(=O)N=C(N)N)cc5)c5ccccc5nc34)cc2)n1
inactive: KM12 > 50 µM | CAKI-1 > 50 µM | A498 > 50 µM | NCI-H23 > 50 µM | SF-268 > 50 µM | NCI-H460 > 50 µM | HCT-116 > 50 µM | K562 > 50 µM | NCI-H226 > 50 µM | COLO 205 > 50 µM | SN12C > 50 µM | M14 > 50 µM | SW-620 > 50 µM | UACC-62 > 50 µM | CCRF-CEM > 50 µM | NCI/ADR-RES > 50 µM | 786-0 > 50 µM | BT-549 > 50 µM

O=C(O)c1c2c(cc3c1CC1(Cc4cc5c(cc4C1=O)CCC5)C3)CCC2 (stereo not given)
inactive: KM12 89.5 µM | A498 > 100 µM | NCI-H23 81.1 µM | SF-268 > 100 µM | NCI-H460 71.1 µM | HCT-116 87.5 µM | K562 52.4 µM | NCI-H226 > 100 µM | COLO 205 52.4 µM | SN12C > 100 µM | M14 > 100 µM | SW-620 > 100 µM | UACC-62 > 100 µM | CCRF-CEM 46.2 µM | NCI/ADR-RES > 100 µM | SK-MEL-28 26.9 µM | 786-0 > 100 µM | BT-549 86.3 µM
